Target: T1, hFXR (Homo sapiens, UniProt Q96RI1)
T1 construct: expressed in transfected cells; host or cells: CV-1 cells
T1 sequence (Q96RI1 1-486): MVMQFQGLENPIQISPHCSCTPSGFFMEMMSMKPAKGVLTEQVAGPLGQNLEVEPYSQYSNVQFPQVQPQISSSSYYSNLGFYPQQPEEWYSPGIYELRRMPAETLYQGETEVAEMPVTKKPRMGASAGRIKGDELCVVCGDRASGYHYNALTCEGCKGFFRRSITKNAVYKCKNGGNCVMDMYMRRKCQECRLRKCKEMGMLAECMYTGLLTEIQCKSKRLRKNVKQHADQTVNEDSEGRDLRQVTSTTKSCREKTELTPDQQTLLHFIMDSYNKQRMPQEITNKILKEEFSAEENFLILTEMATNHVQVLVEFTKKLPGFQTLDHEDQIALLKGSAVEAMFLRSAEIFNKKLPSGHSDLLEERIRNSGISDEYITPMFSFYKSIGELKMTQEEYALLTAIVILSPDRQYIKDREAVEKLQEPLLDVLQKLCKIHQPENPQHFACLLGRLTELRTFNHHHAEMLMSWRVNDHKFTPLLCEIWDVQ
T1 sequence (P19793 1-462 partner): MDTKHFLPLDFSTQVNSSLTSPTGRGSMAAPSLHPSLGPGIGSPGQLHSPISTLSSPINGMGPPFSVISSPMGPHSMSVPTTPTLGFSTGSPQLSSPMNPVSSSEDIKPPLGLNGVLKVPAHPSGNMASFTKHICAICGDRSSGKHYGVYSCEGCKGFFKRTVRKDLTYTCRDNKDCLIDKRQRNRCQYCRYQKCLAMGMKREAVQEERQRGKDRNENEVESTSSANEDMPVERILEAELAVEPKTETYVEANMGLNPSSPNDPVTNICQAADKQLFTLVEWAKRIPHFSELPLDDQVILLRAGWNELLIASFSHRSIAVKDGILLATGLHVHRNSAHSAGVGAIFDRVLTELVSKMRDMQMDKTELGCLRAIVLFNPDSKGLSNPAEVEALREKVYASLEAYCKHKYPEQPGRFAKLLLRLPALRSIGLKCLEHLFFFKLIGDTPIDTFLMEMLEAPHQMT
Test: In Vitro FXR Assay (TK): TK-ECRE-luc reporter in transfected CV-1 cells
Format: cell-based
Settings: 18 hrs, luminescence, maximum efficacy of <25% of the Fexarmine control classified as '+'
Procedure, shortened: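 CV-1 cells transiently co-transfected with hFXR, hRXR, TK-ECRE-luc and pCMX-YFP plasmids in charcoal-stripped serum medium. Serially diluted compounds added, cells incubated 18 h at 37° C, then lysed and luminescence read.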

Row | EC50 | SMILES
1 | ≤ 250 nM | COc1ccc([C@H]2CC[C@H](CN(c3cccc(-c4cnn(C(C)C)c4)c3)C(=O)[C@H]3CC[C@H](CC(=O)O)CC3)CC2)nc1C [Compound 20.13, 2-(trans-4-((3-(1-Isopropyl-1H-pyrazol-4-yl)phenyl)((trans-4-(5-methoxy-6-methylpyridin-2-yl)cyclohexyl)methyl)carbamoyl)cyclohexyl)acetic acid]
2 | ≤ 250 nM | COc1ccc([C@H]2CC[C@H](CN(c3cccc(-c4cnn(C(C)C)c4)c3)C(=O)[C@H]3CC[C@H](CC(=O)O)CC3)CC2)cc1C [Compound 20.14, 2-(trans-4-((3-(1-Isopropyl-1H-pyrazol-4-yl)phenyl)((trans-4-(4-methoxy-3-methylphenyl)cyclohexyl)methyl)carbamoyl)cyclohexyl)acetic acid]
3 | ≤ 250 nM | COc1ccc([C@H]2CC[C@H](CN(c3cc(-c4cnn(C(C)C)c4)ccn3)C(=O)[C@H]3CC[C@H](CC(=O)O)CC3)CC2)cc1C [Compound 20.15, 2-(trans-4-((4-(1-Isopropyl-1H-pyrazol-4-yl)pyridin-2-yl)((trans-4-(4-methoxy-3-methylphenyl)cyclohexyl)methyl)carbamoyl)cyclohexyl)acetic acid]
4 | ≤ 250 nM | COc1ccc([C@H]2CC[C@H](CN(c3cccc(-c4cnn(C(C)C)c4)c3)C(=O)[C@H]3CC[C@H](CCC(=O)O)CC3)CC2)cc1C [Compound 20.16, 3-(trans-4-((3-(1-Isopropyl-1H-pyrazol-4-yl)phenyl)((trans-4-(4-methoxy-3-methylphenyl)cyclohexyl)methyl)carbamoyl)cyclohexyl)propanoic acid]
5 | ≤ 250 nM | COc1ccc(C23CCC(CN(c4cc(-c5coc(C6CC6)n5)ccn4)C(=O)[C@H]4CC[C@H](CC(=O)O)CC4)(CC2)CC3)cc1C [Compound 21, trans-2-(4-((4-(2-Cyclopropyloxazol-4-yl)pyridin-2-yl)((4-(4-methoxy-3-methylphenyl)bicyclo[2.2.2]octan-1-yl)methyl)carbamoyl)cyclohexyl) acetic acid]
6 | ≤ 250 nM | COc1ccc([C@H]2CC[C@H](CN(c3cc(-c4coc(C5CC5)n4)ccn3)C(=O)[C@H]3CC[C@H](CC(=O)O)CC3)CC2)cc1C [Compound 21.01, 2-(trans-4-((4-(2-Cyclopropyloxazol-4-yl)pyridin-2-yl)((trans-4-(4-methoxy-3-methylphenyl)cyclohexyl)methyl)carbamoyl)cyclohexyl)acetic acid]
7 | ≤ 250 nM | COc1ccc([C@H]2CC[C@H](CN(c3cccc(-c4coc(C5CC5)n4)c3)C(=O)[C@H]3CC[C@H](CC(=O)O)CC3)CC2)cc1C [Compound 21.02, 2-(trans-4-((3-(2-Cyclopropyloxazol-4-yl)phenyl)((trans-4-(4-methoxy-3-methylphenyl)cyclohexyl)methyl)carbamoyl)cyclohexyl)acetic acid]
8 | ≤ 250 nM | COc1ccc([C@H]2CC[C@H](CN(c3cccc(-c4coc(C5CC5)n4)c3)C(=O)[C@H]3CC[C@H](CC(=O)O)CC3)CC2)nc1C [Compound 21.03, 2-(trans-4-((3-(2-Cyclopropyloxazol-4-yl)phenyl)((trans-4-(5-methoxy-6-methylpyridin-2-yl)cyclohexyl)methyl)carbamoyl)cyclohexyl) acetic acid]
9 | ≥ 1000 nM | COc1ccc([C@H]2CC[C@@H](CN(c3cccc(-c4coc(C5CC5)n4)c3)C(=O)[C@H]3CC[C@H](CC(=O)O)CC3)CC2)nc1C [Compound 21.04, 2-(trans-4-((3-(2-Cyclopropyloxazol-4-yl)phenyl)((cis-4-(5-methoxy-6-methylpyridin-2-yl)cyclohexyl)methyl)carbamoyl)cyclohexyl) acetic acid]
10 | ≤ 250 nM | COc1ccc([C@H]2CC[C@H](CN(c3cccc(-c4coc(C5CC5)n4)c3)C(=O)[C@H]3CC[C@H](CC(=O)O)CC3)CC2)cc1C#N [Compound 21.05, 2-(trans-4-(((trans-4-(3-Cyano-4-methoxyphenyl)cyclohexyl)methyl)(3-(2-cyclopropyloxazol-4-yl)phenyl)carbamoyl)cyclohexyl)acetic acid]
11 | ≤ 250 nM | CN(C)c1ccc([C@H]2CC[C@H](CN(c3cccc(-c4coc(C5CC5)n4)c3)C(=O)[C@H]3CC[C@H](CC(=O)O)CC3)CC2)cn1 [Compound 21.06, 2-(trans-4-((3-(2-Cyclopropyloxazol-4-yl)phenyl)((trans-4-(6-(dimethylamino)pyridin-3-yl)cyclohexyl)methyl)carbamoyl)cyclohexyl) acetic acid]
12 | ≤ 250 nM | COc1ccc([C@H]2CC[C@H](CN(c3cc(-c4coc(C5CC5)n4)ccn3)C(=O)[C@H]3CC[C@H](CC(=O)O)CC3)CC2)nc1C [Compound 21.07, 2-(trans-4-((4-(2-Cyclopropyloxazol-4-yl)pyridin-2-yl)((trans-4-(5-methoxy-6-methylpyridin-2-yl)cyclohexyl)methyl)carbamoyl)cyclohexyl) acetic acid]
13 | ≤ 250 nM | COc1ccc([C@H]2CC[C@H](CN(c3cccc(-c4coc(C(C)C)n4)c3)C(=O)[C@H]3CC[C@H](CC(=O)O)CC3)CC2)cc1C [Compound 21.08, 2-(trans-4-((3-(2-lsopropyloxazol-4-yl)phenyl)((trans-4-(4-methoxy-3-methylphenyl)cyclohexyl)methyl)carbamoyl)cyclohexyl)acetic acid]
14 | ≤ 250 nM | COc1ccc([C@H]2CC[C@H](CN(c3cc(-c4coc(C(C)C)n4)ccn3)C(=O)[C@H]3CC[C@H](CC(=O)O)CC3)CC2)cc1C [Compound 21.09, 2-(trans-4-((4-(2-Isopropyloxazol-4-yl)pyridin-2-yl)((trans-4-(4-methoxy-3-methylphenyl)cyclohexyl)methyl)carbamoyl)cyclohexyl)acetic acid]
15 | ≤ 250 nM | COc1ccc([C@H]2CC[C@H](CN(c3cccc(-c4coc(C(C)C)n4)c3)C(=O)[C@H]3CC[C@H](CC(=O)O)CC3)CC2)cc1C#N [Compound 21.10, 2-(trans-4-(((trans-4-(3-Cyano-4-methoxyphenyl)cyclohexyl)methyl)(3-(2-isopropyloxazol-4-yl)phenyl)carbamoyl)cyclohexyl)acetic acid]
16 | ≤ 250 nM | COc1ccc([C@H]2CC[C@H](CN(c3cc(-c4coc(C(C)C)n4)ccn3)C(=O)[C@H]3CC[C@H](CC(=O)O)CC3)CC2)cc1C#N [Compound 21.11, 2-(trans-4-(((trans-4-(3-Cyano-4-methoxyphenyl)cyclohexyl)methyl)(4-(2-isopropyloxazol-4-yl)pyridin-2-yl)carbamoyl)cyclohexyl)acetic acid]
17 | ≤ 250 nM | COc1ccc([C@H]2CC[C@H](CN(c3cc(-c4coc(C5CC5)n4)ccn3)C(=O)[C@H]3CC[C@H](CC(=O)O)CC3)CC2)cc1C#N [Compound 21.12, 2-(trans-4-(((trans-4-(3-Cyano-4-methoxyphenyl)cyclohexyl)methyl)(4-(2-cyclopropyloxazol-4-yl)pyridin-2-yl)carbamoyl)cyclohexyl)acetic acid]
18 | ≤ 250 nM | COc1ccc([C@H]2CC[C@H](CN(c3cccc(-c4coc(C5CC5)n4)c3)C(=O)[C@H]3CC[C@H](CC(=O)O)CC3)CC2)nc1C#N [Compound 21.13, 2-(trans-4-(((trans-4-(6-Cyano-5-methoxypyridin-2-yl)cyclohexyl)methyl)(3-(2-cyclopropyloxazol-4-yl)phenyl)carbamoyl)cyclohexyl)acetic acid]
19 | ≤ 250 nM | CCCOC(=O)[C@H]1CC[C@H](C(=O)N(C[C@H]2CC[C@H](c3ccc(OC)c(C)c3)CC2)c2cccc(-c3cnn(C4CC4)c3)c2)CC1 [Compound 22, trans-Propyl 4-((3-(1-cyclopropyl-1H-pyrazol-4-yl)phenyl)((trans-4-(4-methoxy-3-methylphenyl)cyclohexyl)methyl)carbamoyl)cyclohexanecarboxylate]
20 | ≤ 250 nM | COc1ccc([C@H]2CC[C@H](CN(c3cccc(-c4cnn(C5CC5)c4)c3)C(=O)[C@H]3CC[C@H](C(=O)OC(C)C)CC3)CC2)cc1C [Compound 22.01, trans-Isopropyl 4-((3-(1-cyclopropyl-1H-pyrazol-4-yl)phenyl)((trans-4-(4-methoxy-3-methylphenyl)cyclohexyl)methyl)carbamoyl) cyclohexanecarboxylate]
21 | ≤ 250 nM | CCCCOC(=O)[C@H]1CC[C@H](C(=O)N(C[C@H]2CC[C@H](c3ccc(OC)c(C)c3)CC2)c2cccc(-c3cnn(C4CC4)c3)c2)CC1 [Compound 22.02, trans-Butyl 4-((3-(1-cyclopropyl-1H-pyrazol-4-yl)phenyl)((trans-4-(4-methoxy-3-methylphenyl)cyclohexyl)methyl)carbamoyl) cyclohexanecarboxylate]

From US20220089575A1, “FARNESOID X RECEPTOR AGONISTS AND USES THEREOF” (Metacrine, Inc., priority 2017, published 2022)
